{"source": "ChEMBL document CHEMBL1201862", "about": "“PubChem BioAssay data set” (2004)", "assay_in_all_cases": "DTP human tumour cell line panel, 48 h", "key": {"HOP-92": {"test_system": "HOP-92"}, "SF-539": {"test_system": "SF-539"}, "CCRF-CEM": {"test_system": "CCRF-CEM"}, "LOX IMVI": {"test_system": "LOX IMVI"}, "RXF 631": {"test_system": "RXF 631"}, "MOLT-4": {"test_system": "MOLT-4"}, "CAKI-1": {"test_system": "CAKI-1"}, "HCT-15": {"test_system": "HCT-15"}, "RXF 393": {"test_system": "RXF 393"}, "A549": {"test_system": "A549"}, "U-251": {"test_system": "U-251"}, "DMS-114": {"test_system": "DMS-114"}, "K562": {"test_system": "K562"}, "A498": {"test_system": "A498"}, "SF-295": {"test_system": "SF-295"}, "HOP-62": {"test_system": "HOP-62"}, "KM12": {"test_system": "KM12"}, "SNB-78": {"test_system": "SNB-78"}, "NCI-H226": {"test_system": "NCI-H226"}, "HCT-116": {"test_system": "HCT-116"}, "SK-MEL-28": {"test_system": "SK-MEL-28"}, "SR": {"test_system": "SR"}, "HT-29": {"test_system": "HT-29"}, "Malme-3M": {"test_system": "Malme-3M"}, "RPMI-8226": {"test_system": "RPMI-8226"}, "OVCAR-4": {"test_system": "OVCAR-4"}, "ACHN": {"test_system": "ACHN"}, "LXFL 529": {"test_system": "LXFL 529"}, "OVCAR-5": {"test_system": "OVCAR-5"}, "SF-268": {"test_system": "SF-268"}, "TK-10": {"test_system": "TK-10"}, "SW-620": {"test_system": "SW-620"}, "UO-31": {"test_system": "UO-31"}, "HOP-18": {"test_system": "HOP-18"}, "UACC-62": {"test_system": "UACC-62"}, "786-0": {"test_system": "786-0"}, "HL-60": {"test_system": "HL-60"}, "SNB-19": {"test_system": "SNB-19"}, "KM-20L2": {"test_system": "KM-20L2"}, "SK-MEL-2": {"test_system": "SK-MEL-2"}, "IGROV-1": {"test_system": "IGROV-1"}, "M14": {"test_system": "M14"}, "OVCAR-8": {"test_system": "OVCAR-8"}, "SN12C": {"test_system": "SN12C"}, "SNB-75": {"test_system": "SNB-75"}, "EKVX": {"test_system": "EKVX"}, "XF498": {"test_system": "XF498"}, "M19-MEL": {"test_system": "M19-MEL"}, "OVCAR-3": {"test_system": "OVCAR-3"}, "HCC 2998": {"test_system": "HCC 2998"}, "NCI-H460": {"test_system": "NCI-H460"}}, "note": "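Five concentrations, 48 hours, 96-well plates. GI50 is the concentration that inhibits growth by half.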 The source made the active and inactive calls. Rule as the data show it: active = GI50 up to about 1.1 µM and inactive = higher."}
{"smiles": "NC(=O)c1ncn(C2OC(CO)C(O)C2O)c1O", "note": "(stereo unspecified)", "values": [{"measurement": "GI50", "setting": "HOP-92", "value": "46.8 µM (inactive)"}, {"measurement": "GI50", "setting": "SF-539", "value": "> 100 µM (inactive)"}, {"measurement": "GI50", "setting": "CCRF-CEM", "value": "> 100 µM (inactive)"}, {"measurement": "GI50", "setting": "LOX IMVI", "value": "> 100 µM (inactive)"}, {"measurement": "GI50", "setting": "RXF 631", "value": "> 100 µM (inactive)"}, {"measurement": "GI50", "setting": "MOLT-4", "value": "72.1 µM (inactive)"}, {"measurement": "GI50", "setting": "CAKI-1", "value": "83.4 µM (inactive)"}, {"measurement": "GI50", "setting": "HCT-15", "value": 65.2, "unit": "µM"}, {"measurement": "GI50", "setting": "RXF 393", "value": "> 100 µM (inactive)"}, {"measurement": "GI50", "setting": "A549", "value": "> 100 µM (inactive)"}, {"measurement": "GI50", "setting": "U-251", "value": "> 100 µM (inactive)"}, {"measurement": "GI50", "setting": "DMS-114", "value": "> 100 µM (inactive)"}, {"measurement": "GI50", "setting": "K562", "value": "> 100 µM (inactive)"}, {"measurement": "GI50", "setting": "A498", "value": "> 100 µM (inactive)"}, {"measurement": "GI50", "setting": "SF-295", "value": "> 100 µM (inactive)"}, {"measurement": "GI50", "setting": "HOP-62", "value": "> 100 µM (inactive)"}, {"measurement": "GI50", "setting": "KM12", "value": "46.6 µM (inactive)"}, {"measurement": "GI50", "setting": "SNB-78", "value": "> 100 µM (inactive)"}, {"measurement": "GI50", "setting": "NCI-H226", "value": "54.6 µM (inactive)"}, {"measurement": "GI50", "setting": "HCT-116", "value": "72.6 µM (inactive)"}, {"measurement": "GI50", "setting": "SK-MEL-28", "value": "> 100 µM (inactive)"}, {"measurement": "GI50", "setting": "SR", "value": "69 µM (inactive)"}, {"measurement": "GI50", "setting": "HT-29", "value": "4.69 µM (inactive)"}, {"measurement": "GI50", "setting": "Malme-3M", "value": "> 100 µM (inactive)"}, {"measurement": "GI50", "setting": "RPMI-8226", "value": "> 100 µM (inactive)"}, {"measurement": "GI50", "setting": "OVCAR-4", "value": "> 100 µM (inactive)"}, {"measurement": "GI50", "setting": "ACHN", "value": "> 100 µM (inactive)"}, {"measurement": "GI50", "setting": "LXFL 529", "value": "> 100 µM (inactive)"}, {"measurement": "GI50", "setting": "OVCAR-5", "value": "58.1 µM (inactive)"}, {"measurement": "GI50", "setting": "SF-268", "value": "> 100 µM (inactive)"}, {"measurement": "GI50", "setting": "TK-10", "value": "> 100 µM (inactive)"}, {"measurement": "GI50", "setting": "SW-620", "value": "44.4 µM (inactive)"}, {"measurement": "GI50", "setting": "UO-31", "value": "61.9 µM (inactive)"}, {"measurement": "GI50", "setting": "HOP-18", "value": "53.7 µM (inactive)"}, {"measurement": "GI50", "setting": "UACC-62", "value": "> 100 µM (inactive)"}, {"measurement": "GI50", "setting": "786-0", "value": "> 100 µM (inactive)"}, {"measurement": "GI50", "setting": "HL-60", "value": "50.2 µM (inactive)"}, {"measurement": "GI50", "setting": "SNB-19", "value": "> 100 µM (inactive)"}, {"measurement": "GI50", "setting": "KM-20L2", "value": "34.8 µM (inactive)"}, {"measurement": "GI50", "setting": "SK-MEL-2", "value": "> 100 µM (inactive)"}, {"measurement": "GI50", "setting": "IGROV-1", "value": "> 100 µM (inactive)"}, {"measurement": "GI50", "setting": "M14", "value": "> 100 µM (inactive)"}, {"measurement": "GI50", "setting": "OVCAR-8", "value": "> 100 µM (inactive)"}, {"measurement": "GI50", "setting": "SN12C", "value": "> 100 µM (inactive)"}, {"measurement": "GI50", "setting": "SNB-75", "value": "> 100 µM (inactive)"}, {"measurement": "GI50", "setting": "EKVX", "value": "> 100 µM (inactive)"}, {"measurement": "GI50", "setting": "XF498", "value": "> 100 µM (inactive)"}, {"measurement": "GI50", "setting": "M19-MEL", "value": "> 100 µM (inactive)"}, {"measurement": "GI50", "setting": "OVCAR-3", "value": "96.8 µM (inactive)"}, {"measurement": "GI50", "setting": "HCC 2998", "value": "56.8 µM (inactive)"}, {"measurement": "GI50", "setting": "NCI-H460", "value": "53.7 µM (inactive)"}]}
